From ChEMBL document CHEMBL4418482, “2-hydroxyarylamide derivative or pharmaceutically acceptable salt thereof, preparation method thereof, and pharmaceutical composition for preventing or treating cancer containing same as active ingredient” (2014)
Activity calls are given as the source filed them. No cut-off for these calls is given here.

Columns and labels:
[1] = biological target: Transmembrane protease serine 4 (Homo sapiens) (UniProt Q9NRS4); test: Inhibition of TMPRSS4 serine protease domain (Val205 to Leu437 residues) (unknown origin) expressed in Escherichia coli BL21 (DE3) at 1 mM using Boc-Gln-Ala-Arg-7-amido-4-methylcoumarin hydrochloride substrate measured at 5 mins intervals
Sequence of Transmembrane protease serine 4 (Homo sapiens) (Q9NRS4 whole entry, the tested form may be a part): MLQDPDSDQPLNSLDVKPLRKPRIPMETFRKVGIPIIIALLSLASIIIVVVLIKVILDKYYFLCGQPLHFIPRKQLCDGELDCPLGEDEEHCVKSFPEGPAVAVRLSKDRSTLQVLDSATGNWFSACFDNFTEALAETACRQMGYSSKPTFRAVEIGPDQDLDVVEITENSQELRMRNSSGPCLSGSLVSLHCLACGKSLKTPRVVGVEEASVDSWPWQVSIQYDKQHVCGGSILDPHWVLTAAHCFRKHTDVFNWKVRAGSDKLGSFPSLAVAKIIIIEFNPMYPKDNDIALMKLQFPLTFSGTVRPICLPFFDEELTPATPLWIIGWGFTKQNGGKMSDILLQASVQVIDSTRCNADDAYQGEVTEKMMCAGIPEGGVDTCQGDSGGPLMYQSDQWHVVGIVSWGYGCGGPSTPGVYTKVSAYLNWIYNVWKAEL

[2] = biological target: Transmembrane protease serine 4 (Homo sapiens) (UniProt Q9NRS4); test: Inhibition of TMPRSS4 serine protease domain (Val205 to Leu437 residues) (unknown origin) expressed in Escherichia coli BL21 (DE3) at 30 uM using Z-Phe-Arg7-amido-4-methylcoumarin hydrochloride substrate measured at 5 mins interval for 150 mins by fluorescence based assay relative to control
[3] = biological target: Transmembrane protease serine 4 (Homo sapiens) (UniProt Q9NRS4); test: Inhibition of TMPRSS4 serine protease domain (Val205 to Leu437 residues) (unknown origin) expressed in Escherichia coli BL21 (DE3) at 10 uM using Z-Phe-Arg7-amido-4-methylcoumarin hydrochloride substrate measured at 5 mins interval for 150 mins by fluorescence based assay relative to control
[4] = biological target: Transmembrane protease serine 4 (Homo sapiens) (UniProt Q9NRS4); test: Inhibition of TMPRSS4 serine protease domain (Val205 to Leu437 residues) (unknown origin) expressed in Escherichia coli BL21 (DE3) at 100 uM using Z-Phe-Arg7-amido-4-methylcoumarin hydrochloride substrate measured at 5 mins interval for 150 mins by fluorescence based assay relative to control

Row | Compound | inhibition [1] | inhibition [2] | inhibition [3] | inhibition [4]
1 | NCCc1ccc(S(=O)(=O)F)cc1 | Active |  |  | 
2 | Cc1c(NC(=O)c2cc(Cl)ccc2O)cccc1C(F)(F)F |  | 77% |  | 
3 | O=C(Nc1ccc(C(F)(F)F)c(Br)c1)c1cc(Cl)ccc1O |  | 46% | 30% | 98%
4 | O=C(Nc1cc(C(F)(F)F)cc(C(F)(F)F)c1Cl)c1cc(-c2ccc(F)cc2F)ccc1O |  | 31% | 5% | 
